System: IL-8
Assay: IL-8 ELISA of growth media of A2058 melanoma cells
Assay type: cell-based, human
Conditions: A2058 B-RAF mutant melanoma cells, 8 hours exposure; DMSO control 21024
Method: Experiments were also performed wherein A2058 B-RAF mutant melanoma cells were treated with ERK inhibitor #1 (structure set forth herein), ERK inhibitor #2 (structure set forth herein), the PD MEK inhibitor
[drawing 23] or DMSO as a negative-control, for 8 hours.
These experiments were performed using IL-8 ELISAs from R&D Systems (Minneapolis, Minn.). Approximately 1×10^6 A2058 cells were plated onto 10 cm dishes containing 10 ml of growth media. The following day, compound was added and allowed to incubate for 8 hours. The media was removed from the plates, diluted 32× and used in the ELISA.

O=C(NOC[C@H](O)CO)c1ccc(F)c(F)c1Nc1ccc(F)cc1F [PD]
IL-8 levels in growth media: 2080 pg/mL

Cn1cnc2c(F)c(Nc3ccc(Br)cc3Cl)c(C(=O)NOCCO)cc21 [AR]
IL-8 levels in growth media: 1632 pg/mL

From patent US9229008B2, “IL-8 level as a determinant of responsivity of a cancer to treatment” (Merck Sharp & Dohme Corp., priority 2008, dated 2016)
